pIC50: −log10 of the molar value. Structures can show the parent of a compound that is named as a salt.
Tests used:
[1] = target: T1, glucosylceramide synthase (GCS) (Canis lupus familiaris, UniProt A0A8I3MXG6); assay: GCS inhibition in MDCKII cells (inhibition of GlcCer production in whole wild-type MDCKII cells); type: cell-based; details: inhibition of GlcCer production in whole wild-type MDCKII cells, 24 hours; read-out: MDCK IC50
T1 construct: endogenous in cells; host or cells: parental (wild-type) MDCKII cells
T1 sequence (A0A8I3MXG6 1-394): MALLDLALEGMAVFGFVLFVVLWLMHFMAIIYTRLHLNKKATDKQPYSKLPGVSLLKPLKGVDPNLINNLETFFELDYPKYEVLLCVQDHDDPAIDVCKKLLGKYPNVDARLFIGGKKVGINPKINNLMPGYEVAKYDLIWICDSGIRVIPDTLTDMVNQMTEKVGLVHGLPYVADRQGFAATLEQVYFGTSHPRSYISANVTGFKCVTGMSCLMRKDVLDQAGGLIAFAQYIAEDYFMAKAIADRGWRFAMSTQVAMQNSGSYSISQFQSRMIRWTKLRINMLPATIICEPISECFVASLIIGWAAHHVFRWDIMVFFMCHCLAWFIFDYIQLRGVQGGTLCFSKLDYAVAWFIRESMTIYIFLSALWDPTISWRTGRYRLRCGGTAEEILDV

[2] = IP PK: areas under the drug concentration curve after single IP dose in mice; type: in vivo; details: for IP PK Brain AUC / AUC: mice, single IP dose 10 mg/kg; for AUC: mouse, plasma
[3] = Half-life when incubated with mouse liver microsomes (MLM); type: in vitro ADME; details: half-life when incubated with mouse liver microsomes; read-out: MLM T½
Procedure: (§1) ^a Inhibition of GlcCer production in whole wild-type MDCKII cells. ^bHalf-life when incubated with mouse liver microsomes. ^cAreas under the drug concentration curve after single IP dose in mice (10 mg/kg). ^dReduction in brain levels of glucosylceramide in CBE mice after 14 days of qd dosing with test drug administered IP. NC=no change.

[4] = test system: brain glucosylceramide (GCS inhibition); assay: Reduction of brain glucosylceramide in CBE mice; type: in vivo; details: qd, 14 days
Procedure: Reduction of Brain Glucosylceramide and Glucosylsphingosine in CBE Mice
The reduction by inhibitors of GCS in brain glucosylceramide and glucosylsphingosine content was determined by the use of mice with Gba 1 mutant alleles, termed D409V/null. These are knock-in mice with a Gba 1 point mutation encoding Valine (V) 409 for the wild type (WT) Aspartate (D) on one missense allele and a null heteroallele [D409V/null (9V/null)]. The D409V/null and WT littermates were of mixed gender and mixed, but matched, genetic backgrounds of C57BL/129Sv/FVB. (Xu Y H, Sun Y, Barnes S, Grabowski G A (2010) Comparative therapeutic effects of velaglucerase alfa and imiglucerase in a Gaucher disease mouse model. PLoS One 5: e10750.) Mice were treated with intraperitoneal conduritol B epoxide (CBE), an irreversible inhibitor of beta-glucocerebrosidase (25 mg/kg/day) for all groups beginning at post-partum day 15. Mice were concurrently treated with GCS inhibitor or vehicle control for 14 days. The mice were sacrificed 2 hours following the last injection and tissues including brain, liver, spleen, kidney and lung were analyzed for glucosylceramide and glucosylsphingosine by mass spectrometry.
(§2) Mouse Tissue Lipid Analysis
(§3) Lipid extractions of liver, kidney, and brain were performed as previously described (7). Briefly, frozen liver (about 0.5 g), two kidneys (about 0.3 g) and whole brain (about 0.4 g) were individually homogenized in sucrose buffer (250 mM sucrose, pH 7.4, 10 mM HEPES and 1 mM EDTA), at 0.2 g tissue/1 mL of sucrose buffer, with a Tri-R homogenizer. Each 0.8 mL of homogenate was mixed with 2 mL of methanol and 1 mL of chloroform, bath sonicated for 1 min and incubated at room temperature for 1 h. Tissue debris were removed by centrifugation at 2,400× gravity for 30 min. The pellets were re-extracted by mixing with 1 mL of methanol, 0.5 mL of chloroform and 0.4 mL of 0.9% NaCl (chloroform/methanol/0.9% NaCl, 1:2:0.8), incubated at room temperature for 1 h and centrifuged at 2,400× gravity for another 30 min. Two extracts were combined and mixed with 4.5 mL of chloroform and 1.2 mL of 0.9% NaCl (chloroform/methanol/0.9% NaCl, 2:1:0.8). After centrifugation at 800× gravity for 5 min, lower layer was washed with 3 mL of methanol and 2.4 mL of 0.9% NaCl. Second washing was carried with 3 mL of methanol, 2 mL of water and 0.4 mL of 0.9% NaCl followed by a 5 min centrifugation at 800× gravity. The resultant lower phase was collected and dried under a stream of N2 gas.
The analysis of neutral glycosphingolipids from mouse liver, kidney, and brain was processed after alkaline methanolysis. […] lipids were incubated with 2 mL of chloroform and 1 ml of 0.21N NaOH in methanol for 2 h (kidney) or 7.5 h (liver and brain) at RT. The lipid extract was normalized to 0.5 μmol of total phospholipid phosphate (liver and kidney) or 2 μmol of total phospholipid phosphate (brain) for high performance thin layer chromatography analysis. After alkaline methanolysis, the brain lipids were passed through a silica gel column (7). Borate-impregnated thin layer chromatography plates were developed in a two solvent system. Plates were first developed in chloroform/methanol (98:2, v/v). The plates loaded with kidney and liver lipids were then developed in chloroform/methanol/water (64:24:4, v/v/v), and brain lipids were further separated in chloroform/methanol/water (60:30:6, v/v/v). GlcCer levels were quantified by comparison to known standards.
as §1

[5] = test system: brain glucosylceramide content; assay: Brain glucosylceramide content after intraperitoneal administration to mice for 3 days; type: in vivo; details: intraperitoneal administration for 3 days
Procedure: The compounds were screened for inhibition of GCS in broken cell and whole cell assays, and for MDR1 substrate recognition.
as §2
as §3, with “Second washing was carried with 3 mL of methanol, 2 mL of water and 0.4 mL of 0.9% NaCl followed by a 5 min centrifugation at 800× gravity. The resultant lower phase was collected and dried under a stream of N2 gas.” left out
The analysis of neutral glycosphingolipids from mouse liver, kidney, and brain was processed after alkaline methanolysis. […] GlcCer levels were quantified by comparison to known standards.

Row | Structure (SMILES) | pIC50 [1] | IP PK Brain AUC [2] [ng·h/mL] | AUC [2] [ng·h/mL] | half-life [3] [min] | drug exposure in the brain versus compound lacking the 3-chloro substituent [2] | Reduction in brain GlcCer in CBE mice ([4]; 36 μmol/kg/day IP) [%] | Reduction in brain GlcCer in CBE mice ([4]; 26 μmol/kg/day IP) [%] | Reduction in brain GlcCer in CBE mice ([4]; 100 μmol/kg/day IP) [%] | decrease in brain glucosylceramide content [5]
1 | CC(C)(C)Oc1ccc([C@@H](O)[C@@H](CN2CCCC2)NC(=O)CC2Cc3ccccc3C2)cc1Cl [Example 2, N-((1R,2R)-1-(4-(tert-butoxy)-3-chlorophenyl)-1-hydroxy-3-(pyrrolidin-1-yl)propan-2-yl)-2-(2,3-dihydro-1H-inden-2-yl)acetamide] | 10.09 | 1316 | 1990 | 170 |  |  | 21 |  | 
2 | CC1(Oc2ccc([C@@H](O)[C@@H](CN3CCCC3)NC(=O)CC3Cc4ccccc4C3)cc2Cl)COC1 [Example 5, N-((1R,2R)-1-(3-chloro-4-((3-methyloxetan-3-yl)oxy)phenyl)-1-hydroxy-3-(pyrrolidin-1-yl)propan-2-yl)-2-(2,3-dihydro-1H-inden-2-yl)acetamide] | 9.13 | 366 | 849 | 40 | improved |  |  | 64 | 
3 | CCCCCCCC(=O)N[C@H](CN1CCCC1)[C@H](O)c1ccc2c(c1)OCCO2 [eliglustat tartrate, N-((1R,2R)-1-(2,3-dihydrobenzo-[b][1,4]dioxin-6-yl)-1-hydroxy-3-(pyrrolidin-1-yl)propan-2-yl)octanamide] |  |  |  |  |  |  |  |  | not seen

Further compounds by rising pIC50 [1], results first:

Row | pIC50 [1] | IP PK Brain AUC [2] [ng·h/mL] | AUC [2] [ng·h/mL] | half-life [3] [min] | drug exposure in the brain versus compound lacking the 3-chloro substituent [2] | Structure (SMILES) | Reduction in brain GlcCer in CBE mice ([4]; 36 μmol/kg/day IP) [%] | Reduction in brain GlcCer in CBE mice ([4]; 26 μmol/kg/day IP) [%] | Reduction in brain GlcCer in CBE mice ([4]; 100 μmol/kg/day IP) [%] | decrease in brain glucosylceramide content [5]
4 | 9.00 | 1109 | 1540 | 18 |  | O=C(CC1Cc2ccccc2C1)N[C@H](CN1CCCC1)[C@H](O)c1cccc(Cl)c1 [Example 1, N-((1R,2R)-1-(3-chlorophenyl)-1-hydroxy-3-(pyrrolidin-1-yl)propan-2-yl)-2-(2,3-dihydro-1H-inden-2-yl)acetamide] | 23 |  |  | 
5 | 9.10 | 869 | 2180 | 50 |  | O=C(CC1Cc2ccc(F)cc2C1)N[C@H](CN1CCCC1)[C@H](O)c1cccc(Cl)c1 (stereo partly drawn) [Example 9, N-((1R,2R)-1-(3-chlorophenyl)-1-hydroxy-3-(pyrrolidin-1-yl)propan-2-yl)-2-(5-fluoro-2,3-dihydro-1H-inden-2-yl)acetamide] |  | 43 |  | 
6 | 9.49 | 210 | 370 | 29 |  | O=C(N[C@H](CN1CCCC1)[C@H](O)c1ccc(OC2CC2)c(Cl)c1)OC1Cc2ccccc2C1 [Example 12, 2,3-dihydro-1H-inden-2-yl ((1R,2R)-1-(3-chloro-4-cyclopropoxyphenyl)-1-hydroxy-3-(pyrrolidin-1-yl)propan-2-yl)carbamate] |  | 32 |  | 
7 | 9.85 | 293 | 1020 | 24 |  | O=C(CC1Cc2ccccc2C1)N[C@H](CN1CCCC1)[C@H](O)c1ccc(OC2CC2)c(Cl)c1 [Example 4, N-((1R,2R)-1-(3-chloro-4-cyclopropoxyphenyl)-1-hydroxy-3-(pyrrolidin-1-yl)propan-2-yl)-2-(2,3-dihydro-1H-inden-2-yl)acetamide] |  | 33 |  | 
8 | 10.21 | 129 | 590 | 44 | improved | CC1(C)COc2cc([C@@H](O)[C@@H](CN3CCCC3)NC(=O)CC3Cc4ccccc4C3)cc(Cl)c2O1 [Example 7, N-((1R,2R)-1-(8-chloro-2,2-dimethyl-2,3-dihydrobenzo[b][1,4]dioxin-6-yl)-1-hydroxy-3-(pyrrolidin-1-yl)propan-2-yl)-2-(2,3-dihydro-1H-inden-2-yl)acetamide] |  | 49 |  | 

— patent US11220479B2, “Glucosylceramide synthase inhibitors and therapeutic methods using the same” (THE REGENTS OF THE UNIVERSITY OF MICHIGAN, priority 2019, dated 2022)
